What was measured:
[1] = test system: Phosphatidylinositol 4,5-bisphosphate 3-kinase catalytic subunit alpha isoform (Homo sapiens), P42336 [E545K]; assay: Inhibition of human partial length PIK3CA E545K mutant (R108 to N1068 residues) expressed in mammalian expression system assessed as residual activity at 1 uM by Kinomescan method relative to control
[2] = test system: Epidermal growth factor receptor (Homo sapiens), P00533 [UNDEFINED MUTATION]; assay: Inhibition of human partial length EGFR S752-I759del mutant expressed in bacterial expression system assessed as residual activity at 1 uM by Kinomescan method relative to control
[3] = molecular target: Fibroblast growth factor receptor 3 (Homo sapiens) (UniProt P22607); assay: Inhibition of wild-type human partial length FGFR3 (R442 to S771 residues) expressed in bacterial expression system assessed as residual activity at 1 uM by Kinomescan method relative to control
[4] = test system: Mast/stem cell growth factor receptor Kit (Homo sapiens), P10721 [A829P]; assay: Inhibition of human partial length KIT A829P mutant (I571 to D952 residues) expressed in mammalian expression system assessed as residual activity at 1 uM by Kinomescan method relative to control
[5] = molecular target: Serine/threonine-protein kinase pim-3 (Homo sapiens) (UniProt Q86V86); assay: Inhibition of wild-type human partial length PIM3 (G16 to A317 residues) expressed in bacterial expression system assessed as residual activity at 1 uM by Kinomescan method relative to control
[6] = molecular target: Dual specificity mitogen-activated protein kinase kinase 7 (Homo sapiens) (UniProt O14733); assay: Inhibition of wild-type human full length MKK7 (M1 to R419 residues) expressed in mammalian expression system assessed as residual activity at 1 uM by Kinomescan method relative to control
[7] = molecular target: Platelet-derived growth factor receptor alpha (Homo sapiens) (UniProt P16234); assay: Inhibition of wild-type human partial length PDGFRA (V575 to D1002 residues) expressed in mammalian expression system assessed as residual activity at 1 uM by Kinomescan method relative to control
[8] = molecular target: MAP/microtubule affinity-regulating kinase 3 (Homo sapiens) (UniProt P27448); assay: Inhibition of wild-type human full length MARK3 (M1 to L729 residues) expressed in bacterial expression system assessed as residual activity at 1 uM by Kinomescan method relative to control
[9] = molecular target: Tyrosine-protein kinase ABL1 (Homo sapiens) (UniProt P00519); assay: Inhibition of wild-type human phosphorylated ABL1 (S229 to K512 residues) expressed in mammalian expression system assessed as residual activity at 1 uM by Kinomescan method relative to control
[10] = molecular target: Serine/threonine-protein kinase 25 (Homo sapiens) (UniProt O00506); assay: Inhibition of wild-type human partial length YSK1 (V14 to H295 residues) expressed in bacterial expression system assessed as residual activity at 1 uM by Kinomescan method relative to control
[11] = molecular target: Inhibitor of nuclear factor kappa-B kinase subunit alpha (Homo sapiens) (UniProt O15111); assay: Inhibition of wild-type human full length IKK-alpha (M1 to E745 residues) expressed in mammalian expression system assessed as residual activity at 1 uM by Kinomescan method relative to control
[12] = molecular target: Receptor-interacting serine/threonine-protein kinase 2 (Homo sapiens) (UniProt O43353); assay: Inhibition of wild-type human partial length RIPK2 (M1 to K310 residues) expressed in bacterial expression system assessed as residual activity at 1 uM by Kinomescan method relative to control
[13] = molecular target: Phosphorylase b kinase gamma catalytic chain, skeletal muscle/heart isoform (Homo sapiens) (UniProt Q16816); assay: Inhibition of wild-type human full length PHKG1 (M1 to Y387 residues) expressed in bacterial expression system assessed as residual activity at 1 uM by Kinomescan method relative to control
[14] = Elimination half-life in Sprague-Dawley rat at 10 mg/kg, po by LC-MS/MS method; assay type: ADME, organism-based; settings: in vivo, read-out: beta t1/2 (converted)
[15] = test system: Phosphatidylinositol 4,5-bisphosphate 3-kinase catalytic subunit alpha isoform (Homo sapiens), P42336 [C420R]; assay: Inhibition of human partial length PIK3CA C420R mutant (R108 to N1068 residues) expressed in mammalian expression system assessed as residual activity at 1 uM by Kinomescan method relative to control
[16] = molecular target: Serine/threonine-protein kinase 26 (Homo sapiens) (UniProt Q9P289); assay: Inhibition of wild-type human full length MST4 (M1 to P416 residues) expressed in mammalian expression system assessed as residual activity at 1 uM by Kinomescan method relative to control
[17] = molecular target: Serine/threonine-protein kinase Chk2 (Homo sapiens) (UniProt O96017); assay: Inhibition of wild-type human partial length CHEK2 (S253 to E574 residues) expressed in bacterial expression system assessed as residual activity at 1 uM by Kinomescan method relative to control
[18] = molecular target: Bone morphogenetic protein receptor type-2 (Homo sapiens) (UniProt Q13873); assay: Inhibition of wild-type human partial length BMPR2 (R179 to Q526 residues) expressed in mammalian expression system assessed as residual activity at 1 uM by Kinomescan method relative to control
[19] = molecular target: G protein-coupled receptor kinase 3 (Homo sapiens) (UniProt P35626); assay: Inhibition of wild-type human full length GRK3 (M1 to L688 residues) expressed in mammalian expression system assessed as residual activity at 1 uM by Kinomescan method relative to control
[20] = test system: Tyrosine-protein kinase ABL1 (Homo sapiens), P00519 [H396P]; assay: Inhibition of human phosphorylated ABL1 H396P mutant (S229 to K512 residues) expressed in mammalian expression system assessed as residual activity at 1 uM by Kinomescan method relative to control
[21] = molecular target: Mitogen-activated protein kinase kinase kinase 3 (Homo sapiens) (UniProt Q99759); assay: Inhibition of wild-type human partial length MAP3K3 (E320 to Y626 residues) expressed in mammalian expression system assessed as residual activity at 1 uM by Kinomescan method relative to control
[22] = molecular target: Serine/threonine-protein kinase SIK2 (Homo sapiens) (UniProt Q9H0K1); assay: Inhibition of wild-type human full length SIK2 (M1 to N926 residues) expressed in bacterial expression system assessed as residual activity at 1 uM by Kinomescan method relative to control
[23] = molecular target: Homeodomain-interacting protein kinase 3 (Homo sapiens) (UniProt Q9H422); assay: Inhibition of wild-type human partial length HIPK3 (M153 to N562 residues) expressed in mammalian expression system assessed as residual activity at 1 uM by Kinomescan method relative to control
[24] = molecular target: Cyclin-dependent kinase 16 (Homo sapiens) (UniProt Q00536); assay: Inhibition of wild-type human partial length PCTK1 (G160 to A474 residues) expressed in mammalian expression system assessed as residual activity at 1 uM by Kinomescan method relative to control
[25] = test system: Phosphatidylinositol 4,5-bisphosphate 3-kinase catalytic subunit alpha isoform (Homo sapiens), P42336 [M1043I]; assay: Inhibition of human partial length PIK3CA M1043I mutant (R108 to N1068 residues) expressed in mammalian expression system assessed as residual activity at 1 uM by Kinomescan method relative to control

Serine/threonine-protein kinase 25 (Homo sapiens), sequence (O00506 whole entry, looked up, the tested form may be a part): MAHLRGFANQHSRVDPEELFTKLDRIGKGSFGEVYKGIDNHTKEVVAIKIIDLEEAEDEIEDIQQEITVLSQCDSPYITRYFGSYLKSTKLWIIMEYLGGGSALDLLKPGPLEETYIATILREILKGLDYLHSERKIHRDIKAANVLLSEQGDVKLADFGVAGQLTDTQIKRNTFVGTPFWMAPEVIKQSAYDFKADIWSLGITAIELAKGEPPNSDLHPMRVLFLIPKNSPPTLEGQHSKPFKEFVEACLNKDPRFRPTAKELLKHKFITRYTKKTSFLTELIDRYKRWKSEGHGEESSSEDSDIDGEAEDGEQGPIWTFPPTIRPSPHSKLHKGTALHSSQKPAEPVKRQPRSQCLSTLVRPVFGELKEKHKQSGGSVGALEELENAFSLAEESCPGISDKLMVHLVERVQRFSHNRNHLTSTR
MAP/microtubule affinity-regulating kinase 3 (Homo sapiens), sequence (P27448 whole entry, looked up, the tested form may be a part): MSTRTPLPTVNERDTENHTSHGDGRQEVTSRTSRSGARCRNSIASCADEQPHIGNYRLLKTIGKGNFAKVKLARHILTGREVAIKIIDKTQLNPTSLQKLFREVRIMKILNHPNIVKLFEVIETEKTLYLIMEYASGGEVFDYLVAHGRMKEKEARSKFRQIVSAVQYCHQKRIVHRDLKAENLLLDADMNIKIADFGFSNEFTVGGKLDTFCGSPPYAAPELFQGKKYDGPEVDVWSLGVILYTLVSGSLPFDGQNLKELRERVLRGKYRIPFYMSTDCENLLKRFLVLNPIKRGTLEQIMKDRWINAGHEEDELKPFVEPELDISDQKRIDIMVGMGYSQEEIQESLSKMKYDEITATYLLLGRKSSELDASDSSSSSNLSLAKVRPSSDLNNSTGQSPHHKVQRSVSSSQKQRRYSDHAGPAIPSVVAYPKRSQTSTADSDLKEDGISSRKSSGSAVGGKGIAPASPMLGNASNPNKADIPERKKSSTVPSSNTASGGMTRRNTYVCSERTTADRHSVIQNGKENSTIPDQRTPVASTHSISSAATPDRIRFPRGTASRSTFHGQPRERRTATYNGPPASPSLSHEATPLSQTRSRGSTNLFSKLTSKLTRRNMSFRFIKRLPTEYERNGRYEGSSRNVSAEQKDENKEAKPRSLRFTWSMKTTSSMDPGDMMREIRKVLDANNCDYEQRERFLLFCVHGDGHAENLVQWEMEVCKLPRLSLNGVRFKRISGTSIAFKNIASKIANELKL
Bone morphogenetic protein receptor type-2 (Homo sapiens), sequence (Q13873 whole entry, the tested form may be a part): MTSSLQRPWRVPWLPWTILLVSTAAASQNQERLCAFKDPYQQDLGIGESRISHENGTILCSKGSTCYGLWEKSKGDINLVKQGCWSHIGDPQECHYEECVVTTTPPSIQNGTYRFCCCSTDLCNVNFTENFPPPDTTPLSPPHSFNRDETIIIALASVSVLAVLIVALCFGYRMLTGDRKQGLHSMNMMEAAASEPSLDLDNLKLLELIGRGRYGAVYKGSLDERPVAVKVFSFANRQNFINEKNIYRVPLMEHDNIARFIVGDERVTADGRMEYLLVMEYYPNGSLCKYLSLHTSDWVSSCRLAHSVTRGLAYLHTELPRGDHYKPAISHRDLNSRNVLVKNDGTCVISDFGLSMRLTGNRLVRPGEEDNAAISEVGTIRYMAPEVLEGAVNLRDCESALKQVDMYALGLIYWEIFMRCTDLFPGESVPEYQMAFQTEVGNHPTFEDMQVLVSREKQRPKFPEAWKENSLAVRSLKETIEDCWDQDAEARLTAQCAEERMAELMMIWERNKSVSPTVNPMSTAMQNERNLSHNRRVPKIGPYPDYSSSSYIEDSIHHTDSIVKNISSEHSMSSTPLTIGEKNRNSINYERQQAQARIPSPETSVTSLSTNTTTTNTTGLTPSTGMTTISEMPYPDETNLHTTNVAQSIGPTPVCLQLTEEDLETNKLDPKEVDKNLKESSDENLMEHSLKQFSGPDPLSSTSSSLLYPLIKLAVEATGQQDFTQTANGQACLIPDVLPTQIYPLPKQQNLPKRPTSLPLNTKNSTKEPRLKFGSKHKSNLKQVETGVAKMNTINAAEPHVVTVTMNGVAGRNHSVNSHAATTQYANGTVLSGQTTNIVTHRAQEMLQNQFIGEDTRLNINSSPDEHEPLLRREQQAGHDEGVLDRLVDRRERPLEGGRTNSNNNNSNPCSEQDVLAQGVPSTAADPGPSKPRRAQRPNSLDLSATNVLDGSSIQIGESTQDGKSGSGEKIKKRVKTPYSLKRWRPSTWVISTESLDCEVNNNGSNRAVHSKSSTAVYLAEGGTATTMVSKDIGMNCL
G protein-coupled receptor kinase 3 (Homo sapiens), sequence (P35626 whole entry, the tested form may be a part): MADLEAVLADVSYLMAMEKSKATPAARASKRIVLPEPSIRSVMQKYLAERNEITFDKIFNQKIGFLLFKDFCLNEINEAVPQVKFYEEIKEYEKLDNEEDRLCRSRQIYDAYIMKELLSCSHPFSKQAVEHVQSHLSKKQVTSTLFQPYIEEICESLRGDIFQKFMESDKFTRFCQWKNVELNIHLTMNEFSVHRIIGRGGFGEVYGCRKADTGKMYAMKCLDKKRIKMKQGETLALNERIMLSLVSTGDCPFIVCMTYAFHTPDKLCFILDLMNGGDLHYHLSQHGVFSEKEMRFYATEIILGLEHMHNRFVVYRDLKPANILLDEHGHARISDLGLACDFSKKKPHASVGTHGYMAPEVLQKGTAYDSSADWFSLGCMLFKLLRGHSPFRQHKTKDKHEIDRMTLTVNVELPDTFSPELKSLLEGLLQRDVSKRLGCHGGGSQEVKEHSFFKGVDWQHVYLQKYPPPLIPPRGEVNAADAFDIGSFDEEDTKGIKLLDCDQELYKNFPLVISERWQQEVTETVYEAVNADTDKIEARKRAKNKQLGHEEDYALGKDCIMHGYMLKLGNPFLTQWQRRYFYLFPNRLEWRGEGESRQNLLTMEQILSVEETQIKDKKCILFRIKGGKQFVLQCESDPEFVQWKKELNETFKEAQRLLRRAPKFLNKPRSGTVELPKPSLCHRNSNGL
Homeodomain-interacting protein kinase 3 (Homo sapiens), sequence (Q9H422 whole entry, looked up, the tested form may be a part): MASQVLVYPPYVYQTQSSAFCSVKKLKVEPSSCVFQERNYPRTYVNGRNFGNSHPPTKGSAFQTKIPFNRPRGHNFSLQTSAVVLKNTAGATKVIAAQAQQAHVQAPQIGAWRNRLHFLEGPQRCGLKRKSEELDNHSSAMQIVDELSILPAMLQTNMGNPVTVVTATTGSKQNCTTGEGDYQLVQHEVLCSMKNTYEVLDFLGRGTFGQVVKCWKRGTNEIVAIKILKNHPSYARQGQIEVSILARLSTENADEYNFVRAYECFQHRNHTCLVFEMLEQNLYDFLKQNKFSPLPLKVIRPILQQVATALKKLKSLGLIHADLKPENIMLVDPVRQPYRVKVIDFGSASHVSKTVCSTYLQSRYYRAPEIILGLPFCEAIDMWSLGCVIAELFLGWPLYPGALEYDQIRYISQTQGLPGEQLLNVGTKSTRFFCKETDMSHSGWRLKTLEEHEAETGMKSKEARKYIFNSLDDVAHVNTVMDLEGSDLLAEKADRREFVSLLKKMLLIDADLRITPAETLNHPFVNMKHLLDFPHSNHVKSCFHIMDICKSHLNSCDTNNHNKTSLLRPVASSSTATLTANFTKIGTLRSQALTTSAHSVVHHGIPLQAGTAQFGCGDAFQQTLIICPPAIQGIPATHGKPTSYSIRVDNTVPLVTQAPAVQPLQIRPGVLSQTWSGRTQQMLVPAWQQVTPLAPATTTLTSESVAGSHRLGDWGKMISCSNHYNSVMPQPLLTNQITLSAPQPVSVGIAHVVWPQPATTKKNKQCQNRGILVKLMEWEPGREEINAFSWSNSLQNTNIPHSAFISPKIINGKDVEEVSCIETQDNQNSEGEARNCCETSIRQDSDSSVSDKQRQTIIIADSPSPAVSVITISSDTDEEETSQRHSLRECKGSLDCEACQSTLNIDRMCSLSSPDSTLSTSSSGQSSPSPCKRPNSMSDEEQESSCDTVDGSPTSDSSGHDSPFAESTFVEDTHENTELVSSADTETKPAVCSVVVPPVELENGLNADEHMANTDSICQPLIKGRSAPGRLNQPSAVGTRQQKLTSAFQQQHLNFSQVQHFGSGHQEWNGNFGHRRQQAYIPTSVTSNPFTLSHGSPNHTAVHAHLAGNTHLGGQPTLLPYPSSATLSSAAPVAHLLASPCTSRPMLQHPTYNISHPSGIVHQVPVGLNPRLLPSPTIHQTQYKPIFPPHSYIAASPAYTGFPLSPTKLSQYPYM
Phosphorylase b kinase gamma catalytic chain, skeletal muscle/heart isoform (Homo sapiens), sequence (Q16816 whole entry, looked up, the tested form may be a part, canonical isoform): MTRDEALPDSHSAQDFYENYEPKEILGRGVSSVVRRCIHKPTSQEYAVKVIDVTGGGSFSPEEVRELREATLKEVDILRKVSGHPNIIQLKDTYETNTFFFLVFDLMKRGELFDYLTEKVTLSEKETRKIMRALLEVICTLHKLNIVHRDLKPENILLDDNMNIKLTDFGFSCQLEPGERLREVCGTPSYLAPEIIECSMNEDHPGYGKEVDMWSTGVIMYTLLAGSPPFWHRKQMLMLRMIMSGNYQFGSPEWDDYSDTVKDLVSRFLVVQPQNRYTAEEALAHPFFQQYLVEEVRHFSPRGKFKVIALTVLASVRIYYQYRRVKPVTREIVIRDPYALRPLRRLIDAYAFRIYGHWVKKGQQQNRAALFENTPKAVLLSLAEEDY
Cyclin-dependent kinase 16 (Homo sapiens), sequence (Q00536 whole entry, the tested form may be a part, canonical isoform): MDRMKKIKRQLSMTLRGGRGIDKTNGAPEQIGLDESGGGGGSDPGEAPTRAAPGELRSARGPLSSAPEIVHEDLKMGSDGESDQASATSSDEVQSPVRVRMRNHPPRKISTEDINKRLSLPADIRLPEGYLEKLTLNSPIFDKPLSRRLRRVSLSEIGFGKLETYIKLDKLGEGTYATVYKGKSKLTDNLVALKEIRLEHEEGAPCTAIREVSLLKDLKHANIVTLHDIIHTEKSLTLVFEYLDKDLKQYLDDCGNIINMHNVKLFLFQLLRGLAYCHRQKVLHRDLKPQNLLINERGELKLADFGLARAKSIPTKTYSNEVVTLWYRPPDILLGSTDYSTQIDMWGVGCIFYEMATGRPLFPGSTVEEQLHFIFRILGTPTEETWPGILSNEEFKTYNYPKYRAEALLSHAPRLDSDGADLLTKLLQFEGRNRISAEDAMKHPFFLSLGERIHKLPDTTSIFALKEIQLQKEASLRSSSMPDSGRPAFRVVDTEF

## C=CC(=O)Nc1cc(Nc2cc(-c3cccc(NC(=O)c4ccc(C(C)(C)C)cc4)c3C)cn(C)c2=O)ccc1C(=O)N1CCOCC1
[1]
  Activity: 100%
[2]
  Activity: 97%
[3]
  Activity: 89%
[4]
  Activity: 93%
[5]
  Activity: 98%
[6]
  Activity: 100%
[7]
  Activity: 100%
[8]
  Activity: 100%
[9]
  Activity: 100%
[10]
  Activity: 96%
[11]
  Activity: 100%
[12]
  Activity: 62%
[13]
  Activity: 100%
[14]
  half-life: 1.33 h
[15]
  Activity: 100%
[16]
  Activity: 88%
[17]
  Activity: 87%
[18]
  Activity: 93%
[19]
  Activity: 73%
[20]
  Activity: 100%
[21]
  Activity: 100%
[22]
  Activity: 87%
[23]
  Activity: 100%
[24]
  Activity: 99%
[25]
  Activity: 100%

Reference: ChEMBL document CHEMBL4024706 (Eur J Med Chem, 2017)
